According to ChEMBL document CHEMBL5215006, “Antitumor Activity of Piceamycin by Upregulation of N-Myc Downstream-Regulated Gene 1 in Human Colorectal Cancer Cells” (J Nat Prod, 2022):
Calls of active or inactive are those of the source. The rule behind the calls is not given here.

Tests used:
[1] = tested on: SW480; assay: Antiproliferative activity against human SW480 cells assessed as cell growth inhibition incubated for 72 hrs by SRB assay; type: functional, cell-based; details: SW480, 72 h
[2] = tested on: HCT-116; assay: Antitumor activity against human HCT-116 cells assessed as upregulation of NDRG1 gene expression at 0.075 to 0.3 uM incubated for 24 hrs by RT-PCR method; type: functional, cell-based; details: dose 0.075-0.3 µM, DDE = dose-dependent effect
[3] = tested on: HCT-116; assay: Cell cycle arrest in human HCT-116 cells assessed as accumulation at G2/M phase at 0.075 uM incubated for 24 hrs by RNaseA/propidium iodide staining based flow cytometry (reference value: 28.41 %); type: functional
[4] = tested on: HCT-116; assay: Cell cycle arrest in human HCT-116 cells assessed as accumulation at Sub-G1 phase at 0.3 uM incubated for 24 hrs by RNaseA/propidium iodide staining based flow cytometry (reference value: 3.66 %); type: functional
[5] = tested on: HCT-116; assay: Cell cycle arrest in human HCT-116 cells assessed as accumulation at S phase at 0.3 uM incubated for 24 hrs by RNaseA/propidium iodide staining based flow cytometry (reference value: 19.94 %); type: functional
[6] = tested on: SW480; assay: Cell cycle arrest in human SW480 cells assessed as accumulation at S phase at 0.35 uM incubated for 24 hrs by RNaseA/propidium iodide staining based flow cytometry (reference value: 16.7 %); type: functional
[7] = tested on: SW480; assay: Cell cycle arrest in human SW480 cells assessed as accumulation at G2/M phase at 0.35 uM incubated for 24 hrs by RNaseA/propidium iodide staining based flow cytometry (reference value: 24.74 %); type: functional
[8] = tested on: SW480; assay: Cell cycle arrest in human SW480 cells assessed as accumulation at S phase at 0.7 uM incubated for 24 hrs by RNaseA/propidium iodide staining based flow cytometry (reference value: 16.7 %); type: functional
[9] = tested on: SW480; assay: Cell cycle arrest in human SW480 cells assessed as accumulation at S phase at 1.4 uM incubated for 24 hrs by RNaseA/propidium iodide staining based flow cytometry (reference value: 16.7 %); type: functional
[10] = tested on: HCT-116; assay: Cell cycle arrest in human HCT-116 cells assessed as downregulation of CDK4 protein expression at 0.075 to 0.3 uM incubated for 24 hrs by immunoblotting assay; type: functional, cell-based; details: dose 0.075-0.3 µM
[11] = tested on: SW480; assay: Induction of apoptosis in human SW480 cells assessed as upregulation of cleaved PARP expression at 1.4 uM measured at 12 to 48 hrs by immunoblotting assay; type: functional, cell-based; details: time 12-48 hrs, TDE = time-dependent effect
[12] = tested on: HCT-116; assay: Induction of apoptosis in human HCT-116 cells assessed as necrotic cells at 0.075 uM incubated for 48 hrs by Annexin V-FITC/PI staining based flow cytometry analysis (Rvb= 0.13%); type: functional
[13] = tested on: HCT-116; assay: Induction of apoptosis in human HCT-116 cells assessed as viable cells at 0.15 uM incubated for 48 hrs by Annexin V-FITC/PI staining based flow cytometry analysis (Rvb= 94.18%); type: functional; details: read-out: Activity
[14] = tested on: HCT-116; assay: Induction of apoptosis in human HCT-116 cells assessed as early apoptotic cells at 0.15 uM incubated for 48 hrs by Annexin V-FITC/PI staining based flow cytometry analysis (Rvb= 2.51%); type: functional
[15] = tested on: HCT-116; assay: Induction of apoptosis in human HCT-116 cells assessed as late apoptotic cells at 0.15 uM incubated for 48 hrs by Annexin V-FITC/PI staining based flow cytometry analysis (Rvb= 3.18%); type: functional
[16] = tested on: HCT-116; assay: Induction of apoptosis in human HCT-116 cells assessed as viable cells at 0.3 uM incubated for 48 hrs by Annexin V-FITC/PI staining based flow cytometry analysis (Rvb= 94.18%); type: functional; details: read-out: Activity
[17] = tested on: HCT-116; assay: Induction of apoptosis in human HCT-116 cells assessed as late apoptotic cells at 0.3 uM incubated for 48 hrs by Annexin V-FITC/PI staining based flow cytometry analysis (Rvb= 3.18%); type: functional
[18] = tested on: SW480; assay: Induction of apoptosis in human SW480 cells assessed as early apoptotic cells at 1.4 uM incubated for 48 hrs by Annexin V-FITC/PI staining based flow cytometry analysis (Rvb= 2.07%); type: functional
[19] = tested on: SW480; assay: Induction of apoptosis in human SW480 cells assessed as late apoptotic cells at 1.4 uM incubated for 48 hrs by Annexin V-FITC/PI staining based flow cytometry analysis (Rvb= 5.26%); type: functional
[20] = tested on: HCT-116; assay: Induction of apoptosis in human HCT-116 cells assessed as upregulation of cleaved caspase-9 expression at 0.3 uM measured after 48 hrs by immunoblotting assay; type: functional, cell-based
[21] = tested on: SW480; assay: Induction of apoptosis in human SW480 cells assessed as upregulation of cleaved caspase-9 expression at 1.4 uM measured after 48 hrs by immunoblotting assay; type: functional, cell-based
[22] = tested on: HCT-116; assay: Inhibition of cell migration in human HCT-116 cells at 0.075 to 0.3 uM incubated for 24 hrs by wound-healing assay; type: functional, cell-based; details: dose 0.075-0.3 µM, DDE = dose-dependent effect
[23] = tested on: SW480; assay: Inhibition of cell migration in human SW480 cells at 0.35 to 1.4 uM incubated for 24 hrs by wound-healing assay; type: functional, cell-based; details: dose 0.35-1.4 µM, DDE = dose-dependent effect
[24] = tested on: HCT-116; assay: Anti-migratory activity against human HCT-116 cells assessed as downregulation of N-cadherin protein expression at 0.075 to 0.3 uM incubated for 24 hrs by immunoblotting assay; type: functional, cell-based; details: dose 0.075-0.3 µM
[25] = tested on: SW480; assay: Anti-migratory activity against human SW480 cells assessed as downregulation of Snail gene expression at 0.35 to 1.4 uM incubated for 24 hrs by RT-PCR assay; type: functional, cell-based; details: dose 0.35-1.4 µM
[26] = tested on: HCT-116; assay: Antimigratory activity against highly liver metastatic human HCT-116 cells assessed as downregulation of N-cadherin protein expression at 0.075 to 0.3 uM incubated for 24 hrs by immunoblotting assay; type: functional, cell-based; details: dose 0.075-0.3 µM
[27] = tested on: HCT-116; assay: Antimigratory activity against highly liver metastatic human HCT-116 cells assessed as upregulation of NDRG1 gene expression at 0.075 to 0.3 uM incubated for 24 hrs by RT-PCR method; type: functional, cell-based; details: dose 0.075-0.3 µM
[28] = tested on: HCT-116; assay: Antimigratory activity against highly liver metastatic human HCT-116 cells assessed as upregulation of E-cadherin gene expression at 0.075 to 0.3 uM incubated for 24 hrs by RT-PCR method; type: functional, cell-based; details: dose 0.075-0.3 µM
[29] = tested on: HCT-116; assay: Antimigratory activity against highly liver metastatic human HCT-116 cells assessed as downregulation of N-cadherin gene expression at 0.075 to 0.3 uM incubated for 24 hrs by RT-PCR method; type: functional, cell-based; details: dose 0.075-0.3 µM
[30] = tested on: HCT-116; assay: Downregulation of cleaved caspase 8 protein expression in human HCT-116 cells with NDRG1 knockdown at 0.3 uM incubated for 24 hrs by immunoblotting assay; type: functional, cell-based
[31] = tested on: HCT-116; assay: Upregulation of c-Myc protein expression in human HCT-116 cells with NDRG1 knockdown at 0.3 uM incubated for 24 hrs by immunoblotting assay; type: functional, cell-based
[32] = tested on: HCT-116; assay: Antitumor activity against human HCT-116 cells assessed as decrease in c-Myc expression at 0.075 to 0.3 uM incubated for 24 hrs by immunoblotting assay; type: functional, cell-based; details: dose 0.075-0.3 µM
[33] = tested on: SW480; assay: Antitumor activity against human SW480 cells assessed as decrease in c-Myc expression at 0.35 to 1.4 uM incubated for 24 hrs by immunoblotting assay; type: functional, cell-based; details: dose 0.35-1.4 µM
[34] = tested on: HCT-116; assay: Antitumor activity against human HCT-116 cells xenografted Balb/c mouse assessed as decrease in Ki67 protein expression at 3 mg/kg,ip administrated for 18 days by 3 times per week by immunoblotting assay; type: functional, organism-based; details: time 18.0 day

With C[C@@H]1\C=C/C=C/C=C\C=C\C=C\C(=O)C2=C(O)C(=O)C[C@@]2(C)/C=C/C=C\C=C/C(=O)NC1 the IC50 [1] was 650 nM, the Activity [2] was “Dde” and the Activity [3] was 29.02%. For the same molecule, the Activity [4] was 5.19%, the Activity [5] was 10.04% and the Activity [6] was 15.86%. The Activity [7] was 24.45%, the Activity [8] was 15.28% and the Activity [9] was 11.23%. The Activity [10] was “Active”, the Activity [11] was “Tde” and the Activity [12] was 0.16%. For the same molecule, the viability at 0.15 µM [13] was 74.9%, the Activity [14] was 15.66% and the Activity [15] was 9.22%. The viability at 0.3 µM [16] was 40.1%, the Activity [17] was 14.94% and the Activity [18] was 24.26%. The Activity [19] was 44.51%, the Activity [20] was “Active” and the Activity [21] was “Active”. For the same molecule, the inhibition [22] was “Dde”, the inhibition [23] was “Dde” and the Activity [24] was “Active”. The Activity [25] was “Active”, the Activity [26] was “Active” and the Activity [27] was “Active”. For the same molecule, the Activity [28] was “Active”, the Activity [29] was “Active” and the Activity [30] was “Active”. The Activity [31] was “Active”, the Activity [32] was “Active” and the Activity [33] was “Active”. The Activity [34] was “Active”.
